In the NIST ThermoML archive (doi:10.1016/j.jct.2019.01.021):

Conditions: for molar entropy: 101.33 kPa, Small (less than 1 g) adiabatic calorimetry

N.NS(=O)(=O)O [ammonium sulfamate]
Conditions | molar entropy [J/K/mol]
5 K, Crystal 2 | 0.0002827
10 K, Crystal 2 | 0.07483
15 K, Crystal 2 | 0.4656
20 K, Crystal 2 | 1.33
25 K, Crystal 2 | 2.661
30 K, Crystal 2 | 4.49
35 K, Crystal 2 | 6.735
40 K, Crystal 2 | 9.229
45 K, Crystal 2 | 12.14
50 K, Crystal 2 | 15.13
55 K, Crystal 2 | 18.29
60 K, Crystal 2 | 21.53
65 K, Crystal 2 | 24.86
70 K, Crystal 2 | 28.35
75 K, Crystal 2 | 31.84
80 K, Crystal 2 | 35.42
90 K, Crystal 2 | 42.65
100 K, Crystal 2 | 49.97
110 K, Crystal 2 | 57.29
120 K, Crystal 2 | 64.6
130 K, Crystal 2 | 71.75
140 K, Crystal 2 | 78.82
150 K, Crystal 2 | 85.64
160 K, Crystal 2 | 92.29
170 K, Crystal 2 | 98.94
180 K, Crystal 2 | 105.59
190 K, Crystal 2 | 112.25
200 K, Crystal 2 | 118.07
210 K, Crystal 2 | 123.89
220 K, Crystal 2 | 130.54
230 K, Crystal 2 | 136.36
240 K, Crystal 2 | 141.35
260 K, Crystal 1 | 152.99
270 K, Crystal 1 | 157.97
280 K, Crystal 1 | 163.79
290 K, Crystal 1 | 168.78
298.15 K, Crystal 1 | 172.94
300 K, Crystal 1 | 173.77
310 K, Crystal 1 | 178.76
320 K, Crystal 1 | 183.75
330 K, Crystal 1 | 188.74

Conditions | Normal melting temperature [°C] | Triple point temperature [K]
Crystal 1, DTA | 133.0 | –
Crystal 2, Adiabatic calorimetry | – | 254.5
